Data taken from patent publication US11970474B2, “Substituted benzodiazoles and use thereof in therapy” (THOMAS HELLEDAYS STIFTELSE FÖR MEDICINSK FORSKNING, priority 2018, dated 2024).
Like-named read-outs stand apart in the source and are kept apart here.

Legend:
OGG1 = OGG1 (Homo sapiens (Human), UniProt O15527); experiment: In vitro OGG1 activity assay; type: biochemical; conditions: 800 pM OGG1 enzyme, 2 nM human APEX1, 10 nM 8-oxoA:C substrate
Procedure, shortened: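 Read-out is fluorescein fluorescence, with compounds in DMSO added first, then enzyme and substrate. OGG1 excises its substrate base from a quenched fluorophore-labelled duplex, and surplus APEX1 cuts the resulting apurinic site. The duplex then melts and fluorescence rises in proportion to glycosylase activity.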

MLE12 cells = experiment: Cell viability assay in MLE12 cells (resazurin); type: cell-based, mouse; conditions: TNF-α 20 ng/ml, resazurin added after 24 hours culture
Procedure, shortened: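 MLE12 cells (7500 cells/well) were seeded onto 11-point duplicate compound dose-responses, with TNF-α (final 20 ng/ml) added after 1 hour at 37° C. After 24 hours, resazurin was added for 6 hours and resorufin fluorescence read (ex544 nm/em595 nm). EC50 values were calculated by curve fitting.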

CCL2 = experiment: Mouse CCL2 assay in MLE12 cells; type: cell-based; conditions: MLE12 cells, TNF-α 20 ng/ml, supernatant after 30 hours, HTRF, read-out: CCL2 (EC50)
Procedure, shortened: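 CCL2 in supernatants was quantified by two-antibody HTRF FRET, read at 620 and 665 nm after overnight RT incubation, with IC50 derived from delta ratios. Cells were SV40-transformed mouse MLE12, treated with duplicate 6-point compound series for 1 h before 30 h TNF-α (20 ng/ml final) stimulation.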

Chain of OGG1 (O15527 whole entry): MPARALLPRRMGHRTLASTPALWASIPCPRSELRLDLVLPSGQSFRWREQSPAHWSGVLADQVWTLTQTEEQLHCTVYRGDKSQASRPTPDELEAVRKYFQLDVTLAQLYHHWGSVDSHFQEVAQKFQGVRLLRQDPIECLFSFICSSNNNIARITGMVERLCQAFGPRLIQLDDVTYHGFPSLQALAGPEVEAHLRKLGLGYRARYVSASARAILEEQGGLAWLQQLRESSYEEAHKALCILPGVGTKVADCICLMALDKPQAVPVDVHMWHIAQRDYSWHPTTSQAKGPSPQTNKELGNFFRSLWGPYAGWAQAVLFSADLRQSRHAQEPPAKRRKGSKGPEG

| IC50 (OGG1) [µM] | EC50 (CCL2; Mus musculus, MLE12, 30 h) [µM] | EC50 (CCL2) [µM] | SMILES | IC50 (MLE12 cells; Mus musculus, MLE12, 24 h) [µM] | IC50 (MLE12 cells) [µM] |
| --- | --- | --- | --- | --- | --- |
| 0.0335 | 3.13 |  | COc1cc(NC(=O)[C@H]2CC[C@@H](n3c(=O)[nH]c4c(-c5cccc(OCCN(C)C)c5)cccc43)CC2)ccc1C [Example 225, Cis-4-(4-{3-[2-(dimethylamino)ethoxy]phenyl}-2-oxo-2,3-dihydro-1H-1,3-benzodiazol-1-yl)-N-(3-methoxy-4-methylphenyl)cyclohexane-1-carboxamide] | 1.71 |  |
| 0.0779 | 34.1 |  | COc1cc(NC(=O)[C@H]2CC[C@@H](n3c(=O)[nH]c4ccccc43)CC2)ccc1C [Example 226, Cis-N-(3-methoxy-4-methylphenyl)-4-(2-oxo-2,3-dihydro-1H-1,3-benzodiazol-1-yl)cyclohexane-1-carboxamide] | 17.1 |  |
| 0.00015 | 20.8 | 11.2 | COc1cc(NC(=O)[C@H]2CC[C@@H](n3c(=O)[nH]c4c(C(=O)NCCN(C)C)cccc43)CC2)ccc1C [Example 228, N-[2-(Dimethylamino)ethyl]-2-oxo-1-[cis-4-[(3-methoxy-4-methylphenyl)carbamoyl]cyclohexyl]-2,3-dihydro-1H-1,3-benzodiazole-4-carboxamide] | 16.4 | 10.5 |
| 0.0298 | 12.2 | 6.93 | COc1cc(NC(=O)[C@H]2CC[C@@H](n3c(=O)[nH]c4c(N(C)CCN(C)C)cccc43)CC2)ccc1C [Example 229, Cis-4-(4-{[2-(dimethylamino)ethyl](methyl)amino}-2-oxo-2,3-dihydro-1H-1,3-benzodiazol-1-yl)-N-(3-methoxy-4-methylphenyl)cyclohexane-1-carboxamide] | 9.19 | 6.67 |
| 0.606 | 5.84 |  | COc1ccc(CSc2cccc3c2[nH]c(=O)n3[C@H]2CC[C@@H](C(=O)Nc3ccc(C)c(OC)c3)CC2)cc1 [Example 230, Cis-N-(3-methoxy-4-methylphenyl)-4-(4-{[(4-methoxyphenyl)methyl]sulfanyl}-2-oxo-2,3-dihydro-1H-1,3-benzodiazol-1-yl)cyclohexane-1-carboxamide] | 2.58 |  |
| 1.47 | 14.7 |  | COc1cc(NC(=O)[C@H]2CC[C@@H](n3c(=O)[nH]c4c(N(C)Cc5ccccc5)cccc43)CC2)ccc1C [Example 243, Cis-4-{4-[benzyl(methyl)amino]-2-oxo-2,3-dihydro-1H-1,3-benzodiazol-1-yl}-N-(3-methoxy-4-methylphenyl)cyclohexane-1-carboxamide] | 5.74 |  |
| 0.0235 | 39.9 |  | COCC(=O)Nc1cccc2c1[nH]c(=O)n2[C@H]1CC[C@@H](C(=O)Nc2ccc(C)c(OC)c2)CC1 [Example 250, Cis-N-(3-methoxy-4-methylphenyl)-4-[4-(2-methoxyacetamido)-2-oxo-2,3-dihydro-1H-1,3-benzodiazol-1-yl]cyclohexane-1-carboxamide] | 26 |  |
| 0.0269 | 34.3 |  | Cn1c(NC(=O)[C@H]2CC[C@@H](n3c(=O)[nH]c4c(Br)cccc43)CC2)nc2ccccc21 [Example 257, Cis-4-(4-bromo-2-oxo-2,3-dihydro-1H-1,3-benzodiazol-1-yl)-N-(1-methyl-1H-1,3-benzodiazol-2-yl)cyclohexane-1-carboxamide] | 19.9 |  |
| 0.348 | > 100 |  | COc1cc(NC(=O)[C@H]2CC[C@@H](n3c(=O)[nH]c4c(C(=O)N5CCOCC5)cccc43)CC2)ccc1C [Example 262, Cis-N-(3-methoxy-4-methylphenyl)-4-[4-(morpholine-4-carbonyl)-2-oxo-2,3-dihydro-1H-1,3-benzodiazol-1-yl]cyclohexane-1-carboxamide] | 19.7 |  |
| 0.00271 | > 33 |  | COc1cc(NC(=O)[C@H]2CC[C@@H](n3c(=O)[nH]c4c(C(=O)NCCO)cccc43)CC2)ccc1C [Example 263, N-(2-Hydroxyethyl)-2-oxo-1-[cis-4-[(3-methoxy-4-methylphenyl)carbamoyl]cyclohexyl]-2,3-dihydro-1H-1,3-benzodiazole-4-carboxamide] | 27.2 |  |
| 0.0824 | 34.1 |  | COc1cc(NC(=O)[C@H]2CC[C@@H](n3c(=O)[nH]c4c(C(=O)N5CC[C@@H](N(C)C)C5)cccc43)CC2)ccc1C [Example 267, Cis-4-{4-[(3R)-3-(dimethylamino)pyrrolidine-1-carbonyl]-2-oxo-2,3-dihydro-1H-1,3-benzodiazol-1-yl}-N-(3-methoxy-4-methylphenyl)cyclohexane-1-carboxamide] | 17.9 |  |
| 0.056 | 9.45 |  | COc1cc(NC(=O)[C@H]2CC[C@@H](n3c(=O)[nH]c4c(C(=O)N5CCC[C@H]5CN5CCCC5)cccc43)CC2)ccc1C [Example 271, Cis-N-(3-methoxy-4-methylphenyl)-4-{2-oxo-4-[(2S)-2-[(pyrrolidin-1-yl)methyl]pyrrolidine-1-carbonyl]-2,3-dihydro-1H-1,3-benzodiazol-1-yl}cyclohexane-1-carboxamide] | 4.65 |  |
| 0.00411 | 35.7 |  | COc1cc(NC(=O)[C@H]2CC[C@@H](n3c(=O)[nH]c4c(C(=O)NCCN5CCOCC5)cccc43)CC2)ccc1C [Example 272, N-[2-(Morpholin-4-yl)ethyl]-2-oxo-1-[cis-4-[(3-methoxy-4-methylphenyl)carbamoyl]cyclohexyl]-2,3-dihydro-1H-1,3-benzodiazole-4-carboxamide] | 27.1 |  |

The next lines start with the compound.

| SMILES | IC50 (OGG1) [µM] | EC50 (CCL2; Mus musculus, MLE12, 30 h) [µM] | EC50 (CCL2) [µM] | IC50 (MLE12 cells; Mus musculus, MLE12, 24 h) [µM] | IC50 (MLE12 cells) [µM] |
| --- | --- | --- | --- | --- | --- |
| COc1cc(NC(=O)[C@H]2CC[C@@H](n3c(=O)[nH]c4c(O)cccc43)CC2)ccc1C [Example 227, Cis-4-(4-hydroxy-2-oxo-2,3-dihydro-1H-1,3-benzodiazol-1-yl)-N-(3-methoxy-4-methylphenyl)cyclohexane-1-carboxamide] | 0.0179 | 27.5 |  | 16.5 |  |
| COc1cc(NC(=O)[C@H]2CC[C@@H](n3c(=O)[nH]c4c(S)cccc43)CC2)ccc1C [Example 237, Cis-N-(3-methoxy-4-methylphenyl)-4-(2-oxo-4-sulfanyl-2,3-dihydro-1H-1,3-benzodiazol-1-yl)cyclohexane-1-carboxamide] | 0.0671 | 31.7 |  | 4.54 |  |
| COc1cc(NC(=O)[C@H]2CC[C@@H](n3c(=O)[nH]c4cc(C#N)ccc43)CC2)ccc1C [Example 238, Cis-4-(5-cyano-2-oxo-2,3-dihydro-1H-1,3-benzodiazol-1-yl)-N-(3-methoxy-4-methylphenyl)cyclohexane-1-carboxamide] | 0.0409 | 27.1 |  | 9.18 |  |
| COc1cc(NC(=O)[C@H]2CC[C@@H](n3c(=O)[nH]c4c(N5CCNCC5)cccc43)CC2)ccc1C [Example 240, Cis-N-(3-methoxy-4-methylphenyl)-4-[2-oxo-4-(piperazin-1-yl)-2,3-dihydro-1H-1,3-benzodiazol-1-yl]cyclohexane-1-carboxamide] | 0.0153 | 21.5 |  | 16.1 |  |
| CNc1cccc2c1[nH]c(=O)n2[C@H]1CC[C@@H](C(=O)Nc2ccc(C)c(OC)c2)CC1 [Example 244, Cis-N-(3-methoxy-4-methylphenyl)-4-[4-(methylamino)-2-oxo-2,3-dihydro-1H-1,3-benzodiazol-1-yl]cyclohexane-1-carboxamide] | 0.0607 | 37.3 |  | 13.7 |  |
| COCCOc1cccc2c1[nH]c(=O)n2[C@H]1CC[C@@H](C(=O)Nc2ccc(C)c(OC)c2)CC1 [Example 245, Cis-N-(3-methoxy-4-methylphenyl)-4-[4-(2-methoxyethoxy)-2-oxo-2,3-dihydro-1H-1,3-benzodiazol-1-yl]cyclohexane-1-carboxamide] | 2.76 | > 33 |  | 12.5 |  |
| COC(=O)c1cccc2c1[nH]c(=O)n2[C@H]1CC[C@@H](C(=O)Nc2ccc(C)c(OC)c2)CC1 [Example 258, Methyl 2-oxo-1-[cis-4-[(3-methoxy-4-methylphenyl)carbamoyl]cyclohexyl]-2,3-dihydro-1H-1,3-benzodiazole-4-carboxylate] | 0.00583 | 42.7 |  | 11.3 |  |
| COc1cc(NC(=O)[C@H]2CC[C@@H](n3c(=O)[nH]c4c(C(=O)N5CCN(C)CC5)cccc43)CC2)ccc1C [Example 268, Cis-N-(3-methoxy-4-methylphenyl)-4-[4-(4-methylpiperazine-1-carbonyl)-2-oxo-2,3-dihydro-1H-1,3-benzodiazol-1-yl]cyclohexane-1-carboxamide] | 0.153 | > 100 |  | 13.4 |  |
| COc1cc(NC(=O)[C@H]2CC[C@@H](n3c(=O)[nH]c4c(C(=O)NCc5ncc[nH]5)cccc43)CC2)ccc1C [Example 270, N-[(1H-Imidazol-2-yl)methyl]-2-oxo-1-[cis-4-[(3-methoxy-4-methylphenyl)carbamoyl]cyclohexyl]-2,3-dihydro-1H-1,3-benzodiazole-4-carboxamide] | 0.00039 | 32.9 |  | 16.8 |  |
